Experimental data: patent US12076436B2, “Bacterial ferment of Lactobacillus species” (Symrise AG, priority 2021, dated 2024)

Key:
[1] = test system: Interleukin-8 (IL8); assay: IL8 secretion by EpiDerm 3D reconstituted skin models after IL1a stimulation (ELISA); assay type: cell-based, human; conditions: supernatants; 72 h topical treatment, then 1 μg/ml IL1a approx. 24 h; triplicates; dexamethasone at 50 μM
Description: (§1) To assess the effect of the bacterial ferment according to the invention on the secretion levels of IL8, reconstituted 3D skin models (EpiDerm™, MatTek) were used. After a short acclimation phase (daily medium changes), the models were switched to hydrocortisone-free medium, and test compounds were added topically to the reconstituted models. 50 μM dexamethasone was used as positive control, PBS served as negative control in the experiment. After 72 h incubation at 37° C. 5% CO2, the 3D models were washed with PBS and subsequently, an inflammatory response was stimulated by addition of 1 μg/ml Ma in the medium for approx. 24 h. Supernatants were collected after this phase and the IL8 concentration in these supernatants was determined using an ELISA kit (Human […] DuoSet ELISA, R&D Systems). To assess potential toxic effects of the test compounds on the 3D models, a standard MTT assay was carried out to assess viability of the 3D models at the end of the experiment.

[2] = test system: MatTek EpiDerm 3D reconstituted skin models; assay: MTT viability of the 3D skin models; assay type: cell-based, human; conditions: MTT assay at end of experiment; dexamethasone at 50 μM
Description: as §1

[3] = test system: Lactobacillus cultures; assay: Reduction of Lactobacillus viability by treatment with lactic acid (plating of serial dilutions); assay type: cell-based

Structure (SMILES)	IL-8 concentration [pg/ml] ± SEM [1]	Viability (% vs stimulated control) [2]	Lactobacillus count (log cfu/ml) ([3]; 2 % (w/v) lactic acid, 37° C., 12 h)	Lactobacillus count (log cfu/ml) ([3]; 2.8 % (w/v) lactic acid, 37° C., 12 h)	Lactobacillus count (log cfu/ml) ([3]; 3 % (w/v) lactic acid, 37° C., 12 h)	Lactobacillus count (log cfu/ml) ([3]; 3.4 % (w/v) lactic acid, 37° C., 12 h)	Lactobacillus count (log cfu/ml) ([3]; 3.6 % (w/v) lactic acid, 37° C., 12 h)	Lactobacillus count (log cfu/ml) ([3]; 4 % (w/v) lactic acid, 37° C., 12 h)	Lactobacillus count (log cfu/ml) ([3]; 4.4 % (w/v) lactic acid, 37° C., 12 h)	Lactobacillus count (log cfu/ml) ([3]; 4.8 % (w/v) lactic acid, 37° C., 12 h)	Lactobacillus count (log cfu/ml) ([3]; 5 % (w/v) lactic acid, 37° C., 12 h)	Lactobacillus count (log cfu/ml) ([3]; 5.4 % (w/v) lactic acid, 37° C., 12 h)	Lactobacillus count (log cfu/ml) ([3]; 6 % (w/v) lactic acid, 37° C., 12 h)	Lactobacillus count (log cfu/ml) ([3]; 6.8 % (w/v) lactic acid, 37° C., 12 h)	lactic acid concentration range of optimal reduction of Lactobacillus count ([3]; 37° C., 12 h)	reduction in bacterial count by short pH shock with lactic acid ([3]; step c of the method, bacterial ferment supernatant)
C[C@@H]1C[C@H]2[C@@H]3CCC4=CC(=O)C=C[C@]4(C)[C@@]3(F)[C@@H](O)C[C@]2(C)[C@@]1(O)C(=O)CO [Dexamethasone, dexamethasone]	1225 ± 18.61 pg/mL	90 % vs stimulated control	–	–	–	–	–	–	–	–	–	–	–	–	–	–
CC(O)C(=O)O (stereo not shown) [Lactic Acid, lactic acid]	–	–	7.54 log cfu/ml	7.08 log cfu/ml	5.45 log cfu/ml	4.72 log cfu/ml	5.09 log cfu/ml	3.52 log cfu/ml	3.60 log cfu/ml	3.00 log cfu/ml	1.00 log cfu/ml	1.38 log cfu/ml	1.95 log cfu/ml	1.70 log cfu/ml	ca. 5 % (w/v)	at least 9 order
